The text below walks through data of paper PMC12959773 (Protein & Cell, 2025).

Molecules are shown by their SMILES. Positions count from the first letter of the chain named.

The target in assay [1] is T1, SLC7A13-SLC3A1 complex (Homo sapiens, UniProt Q8TCU3, C223A).
T1 construct: heterodimeric light/heavy chain transporter, dimer of heterodimers; ectopically expressed in HEK293T / HEK293 cells (Expi293 for cryo-EM); with Amino acid transporter heavy chain SLC3A1
T1 sequence (Q8TCU3 1-470 C223A): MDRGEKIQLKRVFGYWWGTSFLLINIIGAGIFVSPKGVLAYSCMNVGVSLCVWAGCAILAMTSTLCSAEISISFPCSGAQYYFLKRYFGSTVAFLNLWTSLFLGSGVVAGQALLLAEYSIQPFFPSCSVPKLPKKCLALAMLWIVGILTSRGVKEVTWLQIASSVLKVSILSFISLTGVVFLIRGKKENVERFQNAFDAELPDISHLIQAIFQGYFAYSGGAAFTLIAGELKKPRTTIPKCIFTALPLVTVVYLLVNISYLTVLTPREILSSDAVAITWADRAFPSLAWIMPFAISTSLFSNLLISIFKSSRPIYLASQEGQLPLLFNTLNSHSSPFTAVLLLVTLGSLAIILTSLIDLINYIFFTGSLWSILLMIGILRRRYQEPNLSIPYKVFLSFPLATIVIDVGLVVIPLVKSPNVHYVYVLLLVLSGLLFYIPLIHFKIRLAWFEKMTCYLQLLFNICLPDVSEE
T1 sequence (Q07837 1-685 partner): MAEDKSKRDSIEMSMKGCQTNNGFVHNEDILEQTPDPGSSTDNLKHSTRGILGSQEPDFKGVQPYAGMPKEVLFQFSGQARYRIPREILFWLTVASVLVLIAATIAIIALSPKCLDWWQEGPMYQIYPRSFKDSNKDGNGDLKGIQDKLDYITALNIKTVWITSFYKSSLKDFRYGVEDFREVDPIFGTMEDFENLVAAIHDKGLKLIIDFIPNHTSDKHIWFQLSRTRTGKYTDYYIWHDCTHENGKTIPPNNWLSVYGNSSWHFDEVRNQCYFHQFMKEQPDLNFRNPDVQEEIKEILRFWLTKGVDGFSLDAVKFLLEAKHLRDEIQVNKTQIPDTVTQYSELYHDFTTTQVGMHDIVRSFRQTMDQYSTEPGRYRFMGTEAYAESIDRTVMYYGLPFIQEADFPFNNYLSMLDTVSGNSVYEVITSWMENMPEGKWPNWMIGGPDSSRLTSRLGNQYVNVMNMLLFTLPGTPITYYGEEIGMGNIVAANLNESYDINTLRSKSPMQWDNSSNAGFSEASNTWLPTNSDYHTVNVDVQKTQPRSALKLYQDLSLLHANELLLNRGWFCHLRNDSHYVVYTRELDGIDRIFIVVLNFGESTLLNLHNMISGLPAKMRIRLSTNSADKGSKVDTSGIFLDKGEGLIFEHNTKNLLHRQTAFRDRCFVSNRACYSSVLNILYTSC
The experiment in a line: [2H]-cystine uptake, isotope tracking. Format: cell-based. The settings on record: HEK293 cells transfected with SLC7A13 and SLC3A1; labelled compound.

Assay [2] deals with T2, SLC7A13-SLC3A1 complex (Homo sapiens, UniProt Q8TCU3, F224A).
T2 construct: heterodimeric light/heavy chain transporter, dimer of heterodimers; ectopically expressed in HEK293T / HEK293 cells (Expi293 for cryo-EM); with Amino acid transporter heavy chain SLC3A1
T2 sequence (Q8TCU3 1-470 F224A): T1 sequence (Q8TCU3 1-470 C223A) with A223C, F224A
T2 sequence (Q07837 1-685 partner): T1 sequence (Q07837 1-685 partner)
The experiment in a line: [2H]-cystine uptake, isotope tracking. Format: cell-based. Particulars: HEK293 cells transfected with SLC7A13 and SLC3A1; labelled compound.

Assay [3] addresses T3, SLC7A13-SLC3A1 complex (Homo sapiens, UniProt Q8TCU3).
T3 construct: heterodimeric light/heavy chain transporter, dimer of heterodimers; ectopically expressed in HEK293T / HEK293 cells (Expi293 for cryo-EM); with Amino acid transporter heavy chain SLC3A1
T3 sequence (Q8TCU3 1-470): T1 sequence (Q8TCU3 1-470 C223A) with A223C
T3 sequence (Q07837 1-685 partner): T1 sequence (Q07837 1-685 partner)
The experiment in a line: microscale thermophoresis. The settings on record: read-out: binding affinity. (In general: MST reads how a fluorescent partner responds to local heating, with and without ligand.)

Assay [4] deals with T4, SLC7A13-SLC3A1 complex (Homo sapiens, UniProt Q8TCU3, T225A).
T4 construct: heterodimeric light/heavy chain transporter, dimer of heterodimers; ectopically expressed in HEK293T / HEK293 cells (Expi293 for cryo-EM); with Amino acid transporter heavy chain SLC3A1
T4 sequence (Q8TCU3 1-470 T225A): T1 sequence (Q8TCU3 1-470 C223A) with A223C, T225A
T4 sequence (Q07837 1-685 partner): T1 sequence (Q07837 1-685 partner)
Kind of assay: [2H]-cystine uptake, isotope tracking. Format: cell-based. The settings on record: HEK293 cells transfected with SLC7A13 and SLC3A1; labelled compound.

In the case of `N[C@@H](CSSC[C@H](N)C(=O)O)C(=O)O` [cystine], the cystine uptake result in assay [1], in assay [2] and in assay [4] was “mutation in any of the seven SLC7A13-specific residues to alanine significantly reduced SLC7A13’s transporter activities” each time. Besides, the Kd in assay [3] came to 112 ± 44 µM.
